Among the data in patent US11051515B2, “3-acyl-benzamides and their use as herbicides” (Bayer Aktiengesellschaft, priority 2017, dated 2021) are pest or weed control values, retold here.

Assay [1] has as its system VERPE. Briefly: Post-emergence action against VERPE. The assay is classed as in vivo, Veronica persica. The note with it: Veronica persica, 504 h, dosage 80 g/ha. In a few lines: (§1)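 Post-emergence foliar spray on greenhouse plants at the one-leaf stage, using wettable-powder or emulsion-concentrate formulations in water (600 to […], plus 0.2% wetting agent). Damage scored by eye roughly 3 weeks later against untreated plants: 0% = like control, 100% = dead.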

In assay [2] the test system is VIOTR. Briefly: Post-emergence action against VIOTR. The note with it: Viola tricolor, 504 h; post-emergence, dosage 80 g/ha. The assay is classed as in vivo, Viola tricolor. In a few lines: as §1
Assay [3] relates to AVEFA. Nature of the assay: Pre-emergence action against AVEFA. The settings on record: Avena fatua, 504 h, dosage 320 g/ha, scored visually after 3 weeks vs untreated controls, read-out: Pre-emergence action against AVEFA (herbicidal activity). The assay is classed as in vivo, Avena fatua. In a few lines: (§2)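 Seeds sown in sandy loam in wood-fiber pots and covered with soil. Greenhouse growth; visual damage scored after 3 weeks versus untreated controls (100% = dead, 0% = like control).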

Assay [4] deals with MATIN. Nature of the assay: Pre-emergence action against MATIN. The assay is classed as in vivo, Matricaria inodora. The settings on record: Tripleurospermum inodorum, 504 h; Dosage 320 g/ha, pre-emergence. In a few lines:
as §2

A further assay concerns SETVI. Briefly: Post-emergence action against SETVI. The class given is in vivo, Setaria viridis. The note with it: Setaria viridis, 504 h; post-emergence, dosage 80 g/ha, visual assessment about 3 weeks after treatment vs untreated controls; read-out: Post-emergence action against SETVI (herbicidal action in percent). In a few lines: as §1
Assay [5] deals with VIOTR. Nature of the assay: Pre-emergence action against VIOTR. The assay is classed as in vivo, Viola tricolor. The settings on record: Viola tricolor, 504 h; Dosage 320 g/ha, pre-emergence. In a few lines:
as §2

The next assay concerns AMARE. Nature of the assay: Pre-emergence action against AMARE. The class given is in vivo, Amaranthus retroflexus. The settings on record: Amaranthus retroflexus, 504 h; pre-emergence, dosage 320 g/ha, scored visually after 3 weeks vs untreated controls; read-out: Pre-emergence action against AMARE (herbicidal activity). In a few lines: as §2
Another assay concerns POLCO. Briefly: Post-emergence action against POLCO. The assay is classed as in vivo, Polygonum convolvulus. The note with it: Fallopia convolvulus, 504 h; post-emergence, dosage 80 g/ha. In a few lines:
as §1

A further assay has as its system CYPES. Nature of the assay: Post-emergence action against CYPES. The assay is classed as in vivo, Cyperus esculentus. The note with it: Cyperus esculentus, 504 h; post-emergence, dosage 80 g/ha, visual assessment about 3 weeks after treatment vs untreated controls; read-out: Post-emergence action against CYPES (herbicidal action in percent). In a few lines:
as §1

The subject of assay [6] is MATIN. Nature of the assay: Post-emergence action against MATIN. The assay is classed as in vivo, Matricaria inodora. The settings on record: Tripleurospermum inodorum, 504 h; post-emergence, dosage 80 g/ha, visual assessment about 3 weeks after treatment vs untreated controls; read-out: Post-emergence action against MATIN (herbicidal action in percent). In a few lines:
as §1

The test system of assay [7] is STEME. Briefly: Pre-emergence action against STEME. The class given is in vivo, Stellaria media. The note with it: Stellaria media, 504 h; Dosage 320 g/ha, pre-emergence. In a few lines:
as §2

The subject of assay [8] is VERPE. Briefly: Pre-emergence action against VERPE. The assay is classed as in vivo, Veronica persica. The settings on record: Veronica persica, 504 h; Dosage 320 g/ha, pre-emergence. In a few lines:
as §2

In assay [9] the test system is ABUTH. Nature of the assay: Pre-emergence action against ABUTH. The class given is in vivo, Abutilon theophrasti. The settings on record: Abutilon theophrasti, 504 h; pre-emergence, dosage 320 g/ha, scored visually after 3 weeks vs untreated controls; read-out: Pre-emergence action against ABUTH (herbicidal activity). In a few lines:
as §2

Assay [10] has as its system PHBPU. Nature of the assay: Post-emergence action against PHBPU. The class given is in vivo, Pharbitis purpurea. The note with it: Ipomoea purpurea, 504 h; post-emergence, dosage 80 g/ha. In a few lines:
as §1

The subject of assay [11] is STEME. Nature of the assay: Post-emergence action against STEME. The assay is classed as in vivo, Stellaria media. The note with it: Stellaria media, 504 h; post-emergence, dosage 80 g/ha. In a few lines:
as §1

For assay [12], the system named is PHBPU. Briefly: Pre-emergence action against PHBPU. The class given is in vivo, Pharbitis purpurea. The settings on record: Ipomoea purpurea, 504 h; Dosage 320 g/ha, pre-emergence. In a few lines:
as §2

The subject of a further assay is ECHCG. Briefly: Pre-emergence action against ECHCG. The class given is in vivo, Echinochloa crus-galli. The note with it: Echinochloa crus-galli, 504 h; pre-emergence, dosage 320 g/ha, scored visually after 3 weeks vs untreated controls; read-out: Pre-emergence action against ECHCG (herbicidal activity). In a few lines: as §2
For assay [13], the system named is ABUTH. Briefly: Post-emergence action against ABUTH. The assay is classed as in vivo, Abutilon theophrasti. The settings on record: Abutilon theophrasti, 504 h; post-emergence, dosage 80 g/ha, visual assessment about 3 weeks after treatment vs untreated controls; read-out: Post-emergence action against ABUTH (herbicidal action in percent). In a few lines:
as §1

Assay [14] has as its system AVEFA. Briefly: Post-emergence action against AVEFA. The assay is classed as in vivo, Avena fatua. The settings on record: Avena fatua, 504 h; post-emergence, dosage 80 g/ha, visual assessment about 3 weeks after treatment vs untreated controls; read-out: Post-emergence action against AVEFA (herbicidal action in percent). In a few lines:
as §1

The subject of the next assay is ALOMY. Briefly: Post-emergence action against ALOMY. The settings on record: Alopecurus myosuroides, 504 h; Dosage 80 g/ha, post-emergence. The class given is in vivo, Alopecurus myosuroides. In a few lines: as §1

With `CSc1c(C(=O)Nc2nnnn2C)ccc(C(F)F)c1C(=O)C1CC1` [1-67], the pest or weed control at 80 g/ha with VERPE [1] was found to be 100%; in the assay on VIOTR [2], 100%; in the assay on SETVI it was 100%; in the assay on POLCO it was 100%; in the assay on CYPES, 90%; in the assay on MATIN [6], 100%. Moreover, the pest or weed control at 80 g/ha in the assay with PHBPU [10] came out at 80%; with STEME [11] it was 100%; in the assay with ABUTH [13], 100%; with AVEFA [14] it was 100%; in the assay with ALOMY, 100%. Also, the pest or weed control at 320 g/ha with AVEFA [3] was determined as 80%; in the assay on MATIN [4], 100%; in the assay on VIOTR [5], 100%; in the assay with AMARE it was 100%; in the assay on STEME [7], 100%; with VERPE [8], 100%. The pest or weed control at 320 g/ha with ABUTH [9], in the assay with PHBPU [12] and in the assay on ECHCG was 100% each time.

Consider `CC(=O)c1c(C(F)(F)F)ccc(C(=O)Nc2nnnn2C)c1Cl` [1-137, 3-acetyl-2-chloro-N-(1-methyl-1H-tetrazol-5-yl)-4-(trifluoromethyl)benzamide], for which the pest or weed control at 80 g/ha in the assay with VERPE [1] was found to be 90%; in the assay with VIOTR [2] it was 100%; in the assay with SETVI it was 100%; in the assay on POLCO it was 100%; in the assay with CYPES it was 90%; in the assay on MATIN [6] it was 90%. For the same molecule, the pest or weed control at 80 g/ha in the assay on PHBPU [10] amounted to 100%; in the assay with STEME [11] it was 100%; in the assay on ABUTH [13] it was 90%; with AVEFA [14] it was 100%; in the assay with ALOMY it was 80%. Further, the pest or weed control at 320 g/ha with AVEFA [3], in the assay with MATIN [4], with VIOTR [5], in the assay on AMARE, with STEME [7] and in the assay on VERPE [8] was 100% throughout. The pest or weed control at 320 g/ha amounted to 100% in the assay on ABUTH [9], 90% in the assay with PHBPU [12] and 100% with ECHCG.

As to `Cn1nnnc1NC(=O)c1ccc(C(F)(F)F)c(C(=O)C2CC2)c1Cl` [1-141], the pest or weed control at 80 g/ha with VERPE [1] stood at 100%; in the assay with VIOTR [2] it was 100%; with SETVI, 100%; in the assay on POLCO it was 100%; in the assay with CYPES it was 90%; with MATIN [6], 90%. In addition, the pest or weed control at 80 g/ha with PHBPU [10], in the assay with STEME [11], in the assay with ABUTH [13], with AVEFA [14] and in the assay on ALOMY was 100% in each case. In addition, the pest or weed control at 320 g/ha in the assay on AVEFA [3], in the assay on MATIN [4], in the assay with VIOTR [5], in the assay on AMARE, in the assay with STEME [7] and in the assay on VERPE [8] was 100% in each case. In addition, the pest or weed control at 320 g/ha with ABUTH [9], in the assay with PHBPU [12] and in the assay with ECHCG was 100% in each case.

On to `CC(=O)c1c(C(F)F)ccc(C(=O)Nc2nnnn2C)c1Cl` [1-164], for which the pest or weed control at 80 g/ha in the assay with VERPE [1] came out at 100%; with VIOTR [2] it was 100%; in the assay on SETVI it was 90%; with POLCO it was 90%; with CYPES it was 90%; in the assay with MATIN [6], 100%. Moreover, the pest or weed control at 80 g/ha in the assay with PHBPU [10] stood at 90%; with STEME [11] it was 90%; in the assay on ABUTH [13], 100%; with AVEFA [14], 80%; with ALOMY, 90%. Moreover, the pest or weed control at 320 g/ha with AVEFA [3], in the assay on MATIN [4], in the assay on VIOTR [5], in the assay with AMARE, with STEME [7] and in the assay on VERPE [8] was 100% throughout. The pest or weed control at 320 g/ha in the assay on ABUTH [9], in the assay on PHBPU [12] and in the assay on ECHCG was 100% each time.

On to `Cn1nnnc1NC(=O)c1ccc(C(F)F)c(C(=O)C2CC2)c1Cl` [1-168], for which the pest or weed control at 80 g/ha with VERPE [1], with VIOTR [2], with SETVI, in the assay on POLCO, with CYPES and with MATIN [6] was 100% each time. The pest or weed control at 80 g/ha in the assay on PHBPU [10], in the assay on STEME [11], in the assay with ABUTH [13], with AVEFA [14] and in the assay on ALOMY was 100% each time. In addition, the pest or weed control at 320 g/ha in the assay on AVEFA [3], in the assay with MATIN [4], in the assay on VIOTR [5], in the assay with AMARE, in the assay on STEME [7] and in the assay with VERPE [8] was 100% in each case. Also, the pest or weed control at 320 g/ha in the assay on ABUTH [9], in the assay on PHBPU [12] and in the assay with ECHCG was 100% in each case.

`CCn1nnnc1NC(=O)c1ccc(C(F)(F)F)c(C(=O)C2CC2)c1C` [2-18, 3-(cyclopropylcarbonyl)-N-(1-ethyl-1H-tetrazol-5-yl)-2-methyl-4-(trifluoromethyl)benzamide]: the pest or weed control at 80 g/ha was found to be 80% with VERPE [1]; 100% in the assay on VIOTR [2]; 100% in the assay on SETVI; 100% in the assay on POLCO; 90% in the assay with CYPES; 100% in the assay with MATIN [6]. Besides, the pest or weed control at 80 g/ha in the assay with PHBPU [10], in the assay with STEME [11], in the assay with ABUTH [13], in the assay with AVEFA [14] and in the assay on ALOMY was 100% in each case. The pest or weed control at 320 g/ha in the assay with AVEFA [3] worked out at 100%; in the assay on MATIN [4] it was 100%; with VIOTR [5], 100%; with AMARE, 100%; in the assay on STEME [7], 90%; in the assay on VERPE [8] it was 100%. The pest or weed control at 320 g/ha with ABUTH [9] is 100%; in the assay with PHBPU [12], 90%; in the assay on ECHCG, 100%.
